Assay results reported in patent publication US8568997B2, “Detection system and uses therefor” (Dimerix Bioscience Pty Ltd., priority 2006, dated 2013).
Ends that are not written are not given here.

Legend:
TRHR with OxR1 = test: eBRET between TRHR/Rluc and barr2/Venus with OxR1 as IG3; assay type: cell-based
Protocol: (§1) Where antagonist was not preincubated, cells were treated with PBS instead for the same amount of time.
(§2) Cells were seeded in 6-well plates at a density of approximately 630,000 cells/well (HEK293FT) or approximately 150,000 cells/well (COS-7) and maintained at 37° C., 5% CO2 in Complete Media (DMEM containing 0.3 mg/ml glutamine, 100 IU/ml penicillin and 100 μg/ml streptomycin (Gibco)) supplemented with 10% fetal calf serum (FCS; Gibco). Transient transfections were carried out 24 h after seeding using GeneJuice (Novagen) or Metafectene (Biontex) according to manufacturer instructions. 24 h post-transfection, cells were washed with PBS, detached using 0.05% trypsin/0.53 mM EDTA, resuspended in HEPES-buffered phenol red free Complete Media containing 5% FCS and added to a poly-L-lysine-coated white microplate (Nunc). 48 h post-transfection, eBRET assays were carried out following pre-incubation of cells with EnduRen™ (Promega) at a final concentration of 30-40 μM, at 37° C., 5% CO2 for 2 h. For original BRET studies, the HEPES-buffered phenol red free Complete Media was replaced with PBS and coelenterazine h (Molecular Probes) added to a final concentration of 5 μM immediately prior to commencing the assay. […] Filtered light emissions were sequentially measured for 3-5 s in each of the ‘donor wavelength window’ (400-475 nm) and ‘acceptor wavelength window’ (>500 nm for EGFP or 520-540 nm for EYFP, Topaz (TYFP) or Venus). The BRET signal observed between interacting proteins is normalized by subtracting the background BRET ratio. […] In the following examples, the first calculation will be used, unless the signal is described as the ligand-induced BRET ratio'.
Cells not pretreated with antagonist were pretreated with PBS instead for the same amount of time.

[1] = test system: TRHR with OxR2 (thyrotropin releasing hormone receptor/orexin receptor hetero-dimer/-oligomer); test: eBRET/BRET between TRHR/Rluc (or Rluc8) and labelled beta-arrestin with OxR2 co-expressed as IG3; assay type: cell-based
Protocol: (§3) eBRET measurements at 37 C were carried out on HEK293 cells transiently co-expressing TRHR/Rluc and barr2/Venus with either pcDNA3, orexin receptor 2 (OxR2), CXC chemokine receptor 2 (CXCR2), hemagglutin epitope-tagged melanocortin receptor 3 or 4 (HA-MC3R or HA-MC4R), or dopamine D2 receptor long form (D2LR) or short form (D2SR) following the treatment of each with their respective ligands.
(§4) Phosphate-buffered saline (PBS) was used as a vehicle control.
as §1, §4
Sigmoidal dose response curves were plotted using Prism (GraphPad), either assuming a Hill slope of 1 or allowing for variable slope.
Phosphate-buffered saline (PBS) was added to the first two rows and the last two rows of the 96-well plate (48 wells in total) as a vehicle control. […] Data presented as fluorescence/luminescence.
as §2
In this case, data are shown as ‘fluorescence/luminescence’ being the ratio of light emission through the ‘acceptor wavelength window’ over the 400-475 nm emission for a particular cell sample. Unless otherwise stated, BRET signals were measured in 96-well microplates.

[2] = cited from earlier work
[3] = biological target: T1, CC chemokine receptor 5 (CCR5) (Homo sapiens, UniProt P51681); test: eBRET between CCR5(5)TYFP and barr2/Rluc without IG3 (pcDNA3); assay type: cell-based; conditions: CCR5(5)TYFP + barr2/Rluc + pcDNA3
T1 construct: expressed in transfected cells; host or cells: HEK293
Protocol: (§5) Ligand treatments were either monocyte chemoattractant protein 1 (MCP1; CCR2 selective ligand), macrophage inflammatory protein 1b (MIP1b; CCR5 selective ligand), or both MCP1 and MIP1b combined. Phosphate-buffered saline (PBS) was used as a vehicle control.
(§6) Cells were seeded in 6-well plates at a density of approximately 630,000 cells/well (HEK293FT) or approximately 150,000 cells/well (COS-7) and maintained at 37° C., 5% CO2 in Complete Media (DMEM containing 0.3 mg/ml glutamine, 100 IU/ml penicillin and 100 μg/ml streptomycin (Gibco)) supplemented with 10% fetal calf serum (FCS; Gibco). Transient transfections were carried out 24 h after seeding using GeneJuice (Novagen) or Metafectene (Biontex) according to manufacturer instructions. 24 h post-transfection, cells were washed with PBS, detached using 0.05% trypsin/0.53 mM EDTA, resuspended in HEPES-buffered phenol red free Complete Media containing 5% FCS and added to a poly-L-lysine-coated white microplate (Nunc). 48 h post-transfection, eBRET assays were carried out following pre-incubation of cells with EnduRen™ (Promega) at a final concentration of 30-40 μM, at 37° C., 5% CO2 for 2 h. For original BRET studies, the HEPES-buffered phenol red free Complete Media was replaced with PBS and coelenterazine h (Molecular Probes) added to a final concentration of 5 μM immediately prior to commencing the assay. BRET measurements were taken at 37° C. using the Victor Light plate reader with Wallac 1420 software (Perkin-Elmer). Filtered light emissions were sequentially measured for 3-5 s in each of the ‘donor wavelength window’ (400-475 nm) and ‘acceptor wavelength window’ (>500 nm for EGFP or 520-540 nm for EYFP, Topaz (TYFP) or Venus). The BRET signal observed between interacting proteins is normalized by subtracting the background BRET ratio. […]

CCR5 with CCR2 = biological target: T2, CCR5 with CCR2 (Homo sapiens, UniProt P41597+P51681); test: eBRET between CCR5(5)TYFP and barr2/Rluc with CCR2 as IG3; assay type: cell-based; conditions: CCR5(5)TYFP + barr2/Rluc + CCR2
T2 construct: expressed in transfected cells; host or cells: HEK293
Protocol: as §5
BRET measurements at 37 C were carried out on HEK293 cells transiently co-expressing CCR5(5)TYFP (contains a 5 amino acid linker between CCR5 and TYFP), barr2/Rluc and CCR2 treated with increasing doses of monocyte chemoattractant protein 1 (MCP1; CCR2 selective ligand). A sigmoidal dose response curve was plotted using Prism (GraphPad) allowing for variable slope.
Cells were seeded in 6-well plates at a density of approximately 630,000 cells/well (HEK293FT) or approximately 150,000 cells/well (COS-7) and maintained at 37° C., 5% CO2 in Complete Media (DMEM containing 0.3 mg/ml glutamine, 100 IU/ml penicillin and 100 μg/ml streptomycin (Gibco)) supplemented with 10% fetal calf serum (FCS; Gibco). […] BRET measurements were taken at 37° C. using the Victor Light plate reader with Wallac 1420 software (Perkin-Elmer). Filtered light emissions were sequentially measured for 3-5 s in each of the ‘donor wavelength window’ (400-475 nm) and ‘acceptor wavelength window’ (>500 nm for EGFP or 520-540 nm for EYFP, Topaz (TYFP) or Venus). […]

[4] = test system: thyrotropin releasing hormone receptor (TRHR); test: eBRET/BRET beta-arrestin recruitment to TRHR/Rluc without IG3 (pcDNA3) in HEK293 cells; assay type: cell-based
Protocol: as §3
Ligand treatments were either OxA or TRH only or both OxA and TRH combined. Phosphate-buffered saline (PBS) was used as a vehicle control.
Ligand treatments were either OxA or TRH only. Phosphate-buffered saline (PBS) was used as a vehicle control.
BRET measurements at 37 C were carried out on HEK293 cells transiently co-expressing TRHR/Rluc, barr2/Venus and pcDNA3 with increasing doses of TRH. Sigmoidal dose response curves were plotted using Prism (Graph Pad), either assuming a Hill slope of 1 or allowing for variable slope. The EC50 and Hill slope values for the variable slope curve are included in a table in the graph.
TRHR is IG1, Rluc is RC1, barr1 is IG2, EGFP is RC2 and OxR2 is IG3. The same amount of EGFP/barr1 (IG2-RC2) is transfected for each experiment.
Cells were seeded in 6-well plates at a density of approximately 630,000 cells/well (HEK293FT) or approximately 150,000 cells/well (COS-7) and maintained at 37° C., 5% CO2 in Complete Media (DMEM containing 0.3 mg/ml glutamine, 100 IU/ml penicillin and 100 μg/ml streptomycin (Gibco)) supplemented with 10% fetal calf serum (FCS; Gibco). Transient transfections were carried out 24 h after seeding using GeneJuice (Novagen) or Metafectene (Biontex) according to manufacturer instructions. 24 h post-transfection, cells were washed with PBS, detached using 0.05% trypsin/0.53 mM EDTA, resuspended in HEPES-buffered phenol red free Complete Media containing 5% FCS and added to a poly-L-lysine-coated white microplate (Nunc). 48 h post-transfection, eBRET assays were carried out following pre-incubation of cells with EnduRen™ (Promega) at a final concentration of 30-40 μM, at 37° C., 5% CO2 for 2 h. For original BRET studies, the HEPES-buffered phenol red free Complete Media was replaced with PBS and coelenterazine h (Molecular Probes) added to a final concentration of 5 μM immediately prior to commencing the assay. BRET measurements were taken at 37° C. using the Victor Light plate reader with Wallac 1420 software (Perkin-Elmer). Filtered light emissions were sequentially measured for 3-5 s in each of the ‘donor wavelength window’ (400-475 nm) and ‘acceptor wavelength window’ (>500 nm for EGFP or 520-540 nm for EYFP, Topaz (TYFP) or Venus). The BRET signal observed between interacting proteins is normalized by subtracting the background BRET ratio. This can be done in one of two ways (see Pfleger et al. (2006) Cell Signal 18, 1664-1670; Pfleger et al. (2006) Nat Protoc 1, 336-344): 1) the ratio of light emission through the ‘acceptor wavelength window’ over the 400-475 nm emission for a cell sample containing only the donor construct is subtracted from the same ratio for a sample containing the interacting acceptor and donor fusion proteins; 2) the ratio of light emission through the ‘acceptor wavelength window’ over the 400-475 nm emission for a cell sample treated with vehicle is subtracted from the same ratio for a second aliquot of the same cell sample treated with ligand. In the following examples, the first calculation will be used, unless the signal is described as the ligand-induced BRET ratio'.

[5] = test system: TRHR335 (truncated TRHR) with OxR2; test: eBRET/BRET between TRHR335/Rluc and labelled beta-arrestin with OxR2 as IG3; assay type: cell-based; conditions: TRHR335/Rluc + EGFP/barr1 + OxR2
TRHR335 with TRHR = test: eBRET between TRHR335/Rluc and EGFP/barr1 with TRHR as IG3; assay type: cell-based
Protocol: Ligand treatments were either OxA or TRH only.
as §6, with “For original BRET studies, the HEPES-buffered phenol red free Complete Media was replaced with PBS and coelenterazine h (Molecular Probes) added to a final concentration of 5 μM immediately prior to commencing the assay.” left out, “Venus).” for “Venus). The BRET signal observed between interacting proteins is normalized by subtracting the background BRET ratio.”

[6] = 10^−6M antagonist approx. 40 minutes before 10^−6M OxA
[7] = 10^−6M antagonist approx. 40 minutes before 10^−6M TRH and OxA

T1 sequence (P51681 whole entry, species assumed): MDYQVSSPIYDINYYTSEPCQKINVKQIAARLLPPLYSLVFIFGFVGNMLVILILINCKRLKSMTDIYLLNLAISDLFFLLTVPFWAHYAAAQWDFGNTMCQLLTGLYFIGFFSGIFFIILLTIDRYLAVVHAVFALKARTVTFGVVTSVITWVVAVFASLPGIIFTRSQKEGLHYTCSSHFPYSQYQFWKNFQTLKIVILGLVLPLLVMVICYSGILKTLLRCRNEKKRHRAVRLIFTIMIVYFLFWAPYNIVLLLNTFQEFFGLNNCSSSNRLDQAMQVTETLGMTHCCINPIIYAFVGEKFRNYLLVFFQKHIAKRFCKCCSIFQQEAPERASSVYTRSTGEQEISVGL
T2 sequence (P51681 whole entry, species assumed): as above
T2 sequence (P41597 whole entry, species assumed): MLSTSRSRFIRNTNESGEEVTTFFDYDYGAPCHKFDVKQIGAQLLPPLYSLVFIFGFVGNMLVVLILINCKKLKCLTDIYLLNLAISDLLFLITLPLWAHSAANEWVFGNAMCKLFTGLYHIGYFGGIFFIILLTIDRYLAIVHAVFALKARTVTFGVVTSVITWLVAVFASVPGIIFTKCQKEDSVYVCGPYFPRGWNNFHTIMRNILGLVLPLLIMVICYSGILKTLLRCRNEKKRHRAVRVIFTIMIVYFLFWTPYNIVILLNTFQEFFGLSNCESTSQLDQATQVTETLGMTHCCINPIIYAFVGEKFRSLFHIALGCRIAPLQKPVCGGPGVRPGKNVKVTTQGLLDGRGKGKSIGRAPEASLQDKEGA

Molecule: Cc1nc2ccc(NC(=O)Nc3ccnc4cccnc34)cc2o1.Cl [SB-334867-A, 1-(2-methylbenzoxazol-6-yl)-3-[1,5]naphthyridin-4-yl urea hydrochloride]
- effect of antagonist pretreatment on OxA-induced eBRET signal (TRHR with OxR1; [6]): reduced
- effect of antagonist pretreatment on TRH + OxA-induced eBRET signal (TRHR with OxR1; [7]): reduced
- effect of antagonist pretreatment on OxA-induced eBRET signal [1, 6]: not affected
- effect of antagonist pretreatment on TRH + OxA-induced eBRET signal [1, 7]: did not differ

Molecule: CN1C(=O)C[C@@H](C(=O)N[C@@H](Cc2c[nH]cn2)C(=O)N2CCC[C@H]2C(N)=O)NC1=O.O.O.O.O [TA-0910, (−)-N—[(S)-hexahydro-1-methyl-2,6-dioxo-4-pyrimidinylcarbonyl]-L-histidyl-L-prolinamide tetrahydrate]
- slow wave sleep (SWS) and rapid eye movement (REM) sleep ([2]; dose- and time-dependent manner): significantly reduced
- cataplexy ([2]; in most of the animals studied): completely suppressed

Molecule: MCP1: Monocyte chemoattractant protein 1 (CCR2 selective ligand)
- eBRET signal [3]: no eBRET signal
- effect of MCP1 addition on MIP1b-induced eBRET signal [3]: made no difference
- eBRET signal (CCR5 with CCR2): able to produce a signal

Molecule: OxA: Orexin A, orexin receptor modulator used as IG3 ligand (QPLPDCCRQKTCSCRLYELLHGAGNHAAGILTL; not fully specified; ends and bridges not checked; UniProt O43612 34-66, looked up)
- cumulative eBRET signal ([4]; TRHR/Rluc + EGFP/barr1, 0 μg OxR2 DNA/well, 10^−6M OxA, 83 mins): no signal was recorded
- effect of OxA on TRH-induced eBRET signal ([4]; TRHR/Rluc + EGFP/barr1 or EGFP/barr2, no OxR2, OxA present with TRH): no difference
- eBRET signal ([4]; TRHR/Rluc + EGFP/barr (barr1, barr2 or barr1R169E), no OxR2): No increase in eBRET signal above baseline
- eBRET signal (TRHR with OxR1; TRHR/Rluc + barr2/Venus + OxR1, agonist 10^−6M): small eBRET signal
- time to eBRET signal plateau [5]: about 20 minutes
- eBRET signal ([1]; Example 3: TRHR/Rluc + barr2/Venus + OxR2, 10^−6M OxA, PBS pretreatment): eBRET signal was observed
- time to reach eBRET signal ([1]; HEK293, TRHR/Rluc + barr2/Venus + OxR2, ligand 10^−6M): up to 30 minutes
- eBRET signal ([1]; HEK293, TRHR/Rluc + barr2/Venus + OxR2, ligand 10^−6M, 37 C): 0.07-0.08
- time to eBRET signal plateau ([1]; TRHR/Rluc + EGFP/barr1R169E + OxR2 (lower signal than EGFP/barr1)): ≤ 20 min
- time to eBRET signal plateau ([1]; TRHR/Rluc + EGFP/barr1 or EGFP/barr2 + HA-OxR2): more than 10 minutes
- time to eBRET signal plateau ([1]; TRHR/Rluc + EGFP/barr1 or EGFP/barr2 + OxR2): more than 10 minutes
- dose-response Hill slopes ([1]; TRHR/Rluc + barr2/Venus + OxR2, coelenterazine h and EnduRen, FIG. 12): greater than 1
- eBRET signal (TRHR335 with TRHR): no eBRET signal above baseline

B1: MIP1b: Macrophage inflammatory protein 1b (CCR5 selective ligand) (protein, UniProt P13236 24-92, looked up)
C-C motif chemokine 4: APMGSDPPTACCFSYTARKLPRNFVVDYYETSSLCSQPAVVFQTKRSKQVCADPSESWVQEYVYDLELN
- eBRET signal [3]: robust signal
- eBRET signal (CCR5 with CCR2): produced a signal
